Experimental data as given in paper PMC7651855 (ACS nano, 2019).
Bridges are numbered along the chain shown (N, C = ends). Where no end group is shown, it is not given here.

Test system: C57bl/6 mice
Assay type: in vivo, mouse
Conditions: n=3; for CNS accumulation of NA-HRP (result in words): biotin-peptide:NA-HRP complex, IP, 24 hours post-injection

SACPLSKGKLCGGG (disulfide 3-11 (inferred)) [TACL08]
NA-delivery to the forebrain (result in words) (peptide-neutravidin-HRP, 10 μg per mouse IP, 24 hours): increased NA-delivery to the forebrain when compared against controls

SACHQSQSRMCGGG (disulfide 3-11 (inferred)) [TACL10]
CNS accumulation of NA-HRP (result in words): trended toward significant CNS accumulation

SACSQKNFTHCGGG (disulfide 3-11 (inferred)) [TACL06]
CNS accumulation of NA-HRP (result in words): trended toward significant CNS accumulation
